Source: patent US20080254081A1, “Moist Wipe and Method of Making Same” (GEORGIA-PACIFIC CONSUMER PRODUCTS LP, priority 2002, published 2008)

Test system: test microbes
Assay: Zone of Inhibition Test, antimicrobial efficacy overall
Type: cell-based
Settings: benzalkonium chloride in imbuement
Text: Each fabric was placed in a commercially prepared imbuement containing benzalkonium chloride as the functional cationic additive (an antimicrobial agent).
All test results are the average of testing three batches of sample moist wipes. […] Therefore, all of these examples killed the test microbes when benzalkonium chloride was at the measured concentration in solution in the lotion (Table V). The difference (Example 10 versus Example 11) is when comparing the area around the circular piece of test wet wipe. As the benzalkonium chloride (from the imbuement) diffuses away from the test disk, the concentration of benzalkonium chloride decreases with increasing distance from the test disk. Each test microbe has a different minimum inhibitory concentration (MIC) for benzalkonium chloride to effectively kill that microbe. Therefore, if the concentration of benzalkonium chloride is above the MIC, it is observed as a visible zone where the growth of that test microbe has been inhibited. For this reason, some test microbes show no additional zone around the disk (code 0 in Table V), some show a partial zone around the disk (code 1), some show a small inhibition zone (code 2), while other test microbes show a larger inhibition zone (code 3). Therefore, comparisons among example wet wipes can only be made while comparing the same test microbe.

## benzalkonium chloride
  concentration remaining in solution shown to be sufficient for antibacterial efficacy: 0.029%
